Assay results from patent publication US20200341014A1, “PD Marker of Hepatocyte Growth Factor (HGF)” (EISAI R&D MANAGEMENT CO., LTD., priority 2016, published 2020).

What was measured:
ApoA4 gene expression = experiment: DNA microarray analysis of hepatic tissue of healthy mice administered rh-HGF; type: in vivo, mouse
Protocol: Using hepatocyte growth factor activator recombinantly expressed in Chinese hamster ovary (CHO) cells, human HGF recombinantly expressed in CHO cells were activated to obtain rh-HGF. BALB/cAnNCrlCrlj male 6 weeks-old mice (CHARLES RIVER JAPAN) were intravenously administered with Dulbecco's Phosphate buffered saline (PBS) (Wako, #045-29795) or rh-HGF (1.5 mg/kg). […] After euthanization, hepatic tissue was collected and immersed in RNA later (Ambion, #AM7021).
From the harvested liver, total RNA was purified with TRIZOL Reagent (Invitrogen, #15596-018), RNeasy Mini Kit (QIAGEN, #74104), and RNase-Free DNase set (QIAGEN, #79254). RNA concentration was measured by absorbance, and then quality check was carried out with RNA 6000 Nano Assay Kit (Agilent Technologies, #5067-1511) using 2100 Bioanalyzer (Agilent Technologies).
The DNA microarray used was SurePrint G3 mouse GE 8×60K (Agilent Technologies, #G4852A). […] Among this, as molecules that may appear to possibly exist as soluble proteins, those having information of “Extracellular” or “Plasma membrane” in Gene Ontology annotation were extracted.

ApoA4 mRNA = experiment: Real-time PCR of liver ApoA4 mRNA in mice administered rh-HGF and c-Met inhibitor (Example 2); type: in vivo, mouse; conditions: rh-HGF 0.5-15 mg/kg intravenous, 24 hours; FIG. 2
Protocol: (§1) To BALB/cAnNCrlCrlj male 6 weeks-old mice (CHARLES RIVER JAPAN), c-Met inhibitor PF-04217903 (50 mg/kg) (Selleck Chemicals #S1094, lot. 05) or vehicle (5% DMSO, 10% Tween80, 6.7 mmol/L aqueous hydrochloric acid solution) was orally administered at a dose of 10 mL/kg, and after 1 hour, rh-HGF (0.5, 1.5, 5.0, or 15 mg/kg) or PBS was intravenously administered. […] After euthanization, hepatic tissue was collected and immersed in RNA later (Ambion, #AM7021). Serum was collected from the blood collected.
From the harvested liver, total RNA was purified with TRIZOL Reagent (Invitrogen, #15596-018), RNeasy Mini Kit (QIAGEN, #74104), and RNase-Free DNase set (QIAGEN, #79254), and RNA concentration was measured by absorbance.
Quantification of ApoA4 mRNA by real-time PCR method was carried out according to Example 1.
(§2) With the results of ApoA4 mRNA quantification, Dunnett's multiple comparison test was carried out between the control and the rh-HGF administration groups.

ApoA4 protein = experiment: Western blot quantification of serum ApoA4 protein in mice administered rh-HGF and c-Met inhibitor (Example 2); type: in vivo, mouse; conditions: rh-HGF 0.5-15 mg/kg intravenous, 24 hours; FIG. 3
Protocol: as §1
Using the above serum, ApoA4 protein was quantified by Western blot method. To the serum diluted 200-folds with PBS (−) (Wako), ¼ volume of the electrophoresis buffer solution (313 mM Tris-HCl (pH 6.8), 10% SDS, 30% Glycerol, 0.2 mg/mL Bromo-phenol blue, and 25% 2-Mercaptoethnol) was added (the final dilution of the serum will be 250-folds), and this was subjected to heat treatment at 95° C. for 3 minutes. […] After washing three times with the above wash solution, chemiluminescence solution SuperSignal West Dura Extended Duration Substrate (Thermo Scientific) was added to allow luminescence, and ApoA4 protein was detected with LAS-4000 (FUJIFILM).
For the results of serum ApoA4 protein quantification, Dunnett's multiple comparison test was carried out between the control and the rh-HGF administration groups.

human ApoA4 mRNA = experiment: Real-time PCR of human ApoA4 mRNA in human primary culture hepatocytes treated with rh-HGF; type: cell-based; conditions: human primary culture hepatocytes, rh-HGF 100, 300 or 1000 ng/mL, 24 hours; FIG. 5
Protocol: Human primary culture hepatocytes seeded in a 24-well plate (3.8×10^5 cells/well, Biopredic International, #HEP220-MW24) were cultured for three days in Incubation Medium (product name: Biopredic International, #MIL214), then c-Met inhibitor PF-04217903 (final concentration 100 nmol/L) (Selleck Chemicals, #S1094, lot. 05) or vehicle (DMSO) was added, and after 1 hour, rh-HGF (final concentration 100, 300, or 1000 ng/mL) or (Incubation Medium) for the control group (Control) was added.
From hepatocytes 24 hours after addition of rh-HGF, total RNA was purified with RNeasy Mini Kit (QIAGEN, #74104) and RNase-Free DNase set (QIAGEN, #79254), and RNA concentration was measured by absorbance. The purified total RNA was reverse transcripted using High-Capacity cDNA Reverse Transcription Kit with RNase Inhibitor (Applied Biosystems, #4374966) to create cDNA. With the cDNA obtained as the template, the amount of ApoA4 mRNA expressed was examined by real-time PCR method. 18S rRNA was used as the internal control for examination. […]
as §2

For “rh-HGF: human HGF recombinantly expressed in CHO cells, activated with hepatocyte growth factor activator recombinantly expressed in CHO cells”, the “Signal value (average) 8 hours, ApoA4 (A_51_P327491)” value (ApoA4 gene expression; liver, 8 hr after rh-HGF 1.5 mg/kg intravenous) was 15738, the “Change in expression (vs 0 hours) 8 hours Ratio, ApoA4” value (ApoA4 gene expression; liver, 8 hr after rh-HGF 1.5 mg/kg intravenous, vs PBS group) was 6.46 and the “Signal value (average) 24 hours, ApoA4 (A_51_P327491)” value (ApoA4 gene expression; liver, 24 hr after rh-HGF 1.5 mg/kg intravenous) was 13453. For the same substance, the “Change in expression (vs 0 hours) 24 hours Ratio, ApoA4” value (ApoA4 gene expression; liver, 24 hr after rh-HGF 1.5 mg/kg intravenous, vs PBS group) was 5.52, the “ApoA4 expression in liver (DNA microarray)” value (ApoA4 gene expression; rh-HGF 1.5 mg/kg intravenous vs PBS only (Group 1)) was “enhancement of expression” and the “ApoA4 mRNA expression in the liver” value (ApoA4 mRNA) was “significantly induced/enhanced”. For the same substance, the “ApoA4 protein expression in the serum” value (ApoA4 protein) was “induction of ApoA4 protein expression” and the “Human ApoA4 mRNA expression” value (human ApoA4 mRNA) was “strongly enhanced”.
